According to patent US11730770B2, “Methods for making and using sinoatrial node-like pacemaker cardiomyocytes and ventricular-like cardiomyocytes” (UNIVERSITY HEALTH NETWORK, priority 2015, dated 2023):

How the values were obtained:
Type in all cases: cell-based, human
[1] = tested on: HES3 NKX2-5:GFP reporter line; assay: Flow cytometry of day 20 differentiation cultures for NKX2-5 and cTNT
Method: Human pluripotent stem cell lines (Hes3 NKX2-5:GFP)^10 H7 (HESC line approved by NIH registration number 0061^32 and MSC-IPS1^11 were cultured as described^12. For differentiation into the cardiac lineage the established protocol was used with the following modifications (FIG. 1A). 80% confluent hPSCs cultures were dissociated into single cells, suspended in StemPro-34 Media containing 1 ng/ml BMP4 and 10 μM ROCK inhibitor and incubated for 18 h on an orbital shaker to generate embryoid bodies (EBs). The next day (day 1 of differentiation) the EBs were transferred to mesoderm induction media: StemPro-34 containing 10 ng/ml BMP4, 6 ng/ml ActivinA, 5 ng/ml bFGF. At day 3 of differentiation the EBs were washed once using IMDM and suspended in cardiac induction media: StemPro-34 containing 0.5 μM IWP2, 10 ng/ml VEGF, and optionally 5.4 μM SB-431542 (SB, Activin/Nodal/TGFβ inhibitor). At day 5 of differentiation EBs were switched to basic media: Stempro containing 5 ng/ml VEGF. Media was supplemented with VEGF until day 12 of differentiation and changed every 4 days. All cytokines were purchased from R&D systems if not indicated otherwise. EBs were cultured under low oxygen conditions 5% CO2, 5% O2, 90% N2 until day 12 and at 5% CO2, normal air conditions for the rest of the culture period.
EBs were dissociated into single cells at the mesoderm stage (day 3 of differentiation) using TrypLE (Life Technologies) with the rational to ensure efficient cytokine supply to each cell. Cells were placed into 96 well low cluster plates at 80,000 cells/well with the indicated cytokines and 5 μM ROCK inhibitor for re-aggregation into EBs (FIG. 2A). At day 5 of differentiation EBs were transferred to 24 well low cluster plates and continued to be cultured in basic media as described above.
For efficient specification of SANLCM pacemaker, mesoderm was induced with the 3B/2A condition (3 ng/ml BMP4, 2 ng/ml ACTA) at day 1 of differentiation. At day 3 EBs were dissociated as described above and treated with 2.5 ng/ml BMP4 and 0.5 μM RA in addition to standard cardiac induction media.
For the generation of SANLCM cultures free of NKX2-5′ cardiomyocytes mesoderm was induced with the 3B/2A condition (3 ng/ml BMP4, 2 ng/ml ACTA) at day 1 of differentiation. For this protocol EBs were kept intact and treated at day 3 with 2.5 ng/ml BMP4, 0.5 μM RA and 960 nM FGF inhibitor (PD 173074, Tocris) at day 3 or day 4 in addition to standard cardiac induction media.
(§1) For the dissociation of day 3-day 12 EBs TrypLE was used. Day 12-30 EBs were incubated in HANKs buffer containing 1 mg/ml Collagenes type 2 (Worthington) with gentle shaking over night at room temperature, prior to TypLE dissociation. Cells were stained at a concentration of 5×10^6 cells/ml with anti-PDGFRα-PE (1:20) anti-KDR-APC (1:10), (R&D Systems), anti-SIRPA-PeCy (clone SE5A5, 1:1000, Biolegend), anti-CD90-APC (BD), anti-cardiac isoform of cTNT (clone 13-11; 1:2000, Thermo Fischer), rabbit anti-human NKX2-5 (1:800, Cell Signaling Technology), goat anti-mouse IgG APC (1:250, BD), goat anti-mouse IgG PE (1:200, Jackson ImmunoResearch), donkey anti-rabbit IgG A647 Life Technologies). For cell-surface markers staining was carried out in PBS containing 5% FCS. For intra-cellular staining cells were fixed for 10 min at 4° C. with 4% PFA and stained in PBS containing 5% FCS and 0.5% saponin (cTNT) or 0.3% TritonX (NKX2-5). Stained cells were analyzed using the LSR II Flow cytometer (BD). For cell sorting the cells were kept in IMDM containing 5% FCS and sorted at a concentration of 10^6 cell/ml using MoFlo (BD) and Influx (BD) sorter. For sorting of PFA-fixed cells for subsequent RNA isolation the staining buffers and PBS for cell collection were supplemented with 5 mM DTT and 100 U/ml RNaseOUT (Life Technologies). All buffer components were RNAse free and samples were strictly kept on ice and sorted within 3 h from PFA-fixation. Data were analyzed using FlowJo software (Tree Star).

[2] = tested on: pacemaker funny current (If); assay: Patch clamp, pacemaker funny current density; settings: 2 mM Cesium (Cs+) vs Tyrode's solution
Method: FIG. 9. A, Current-voltage relationship for pacemaker funny current density (If) in SANLCM and VLCM. Inset: voltage protocol, from a holding potential of −40 mV currents were elicited by 3 s voltage steps of −10 mV down to −120 mV. Current densities were measured by subtraction of the instantaneous current (t=0) from the current at the end of the 3 sec voltage step. B,C Original pacemaker funny current traces at different membrane potentials in Tyrode's solution (B) and blocked by the application of 2 mM Cesium (Cs^+) (C). Inset: voltage protocol, from a holding potential of −40 mV currents were elicited by 3 s voltage steps of −10 mV down to −120 mV. […] Current densities were measured as peak inward currents. […]
Action potentials and membrane currents were measured with standard current- and voltage-clamp techniques using axopatch amplifier. […] Spontaneous action potentials, funny current (If) and inward rectifier potassium currents ([…]) were recorded at 37° C. using the perforated patch method (nystatin)^14 with the following bath solution (mM): NaCl 124. […] Sodium currents (IN) were recorded at 25° C. using the whole cell ruptured patch method in calcium free bath solution containing low Na^+ to reduce current amplitude for better voltage control (mM): NaCl 30, TEA-Cl 115, CaCb20.01, MgCl2 1, and glucose 5, Hepes 10 (pH 7.4, adjusted with NaOH). […]

[3] = tested on: HES-2 embryonic stem cell line; assay: Flow cytometry of day 20 HES2 cultures, intracellular NKX2-5 and cTNT staining
Method: For the generation of SANLCM cultures free of NKX2-5′ cardiomyocytes mesoderm was induced with the 3B/2A condition (3 ng/ml BMP4, 2 ng/ml ACTA) at day 1 of differentiation. […]
as §1, with “For sorting of PFA-fixed cells for subsequent RNA isolation the staining buffers and PBS for cell collection were supplemented with 5 mM DTT and 100 U/ml RNaseOUT (Life Technologies). All buffer components were RNAse free and samples were strictly kept on ice and sorted within 3 h from PFA-fixation.” left out, “Star). […]” for “Star).”

[4] = tested on: TBX18; assay: Quantification of TBX18+ cells from immunostaining; settings: BMP4 2.5 ng/ml day 3-5
Method: Cells were fixed with 4% PFA for 10 min at 4° C. and permeabilized using 0.3% Triton X, 200 mM Glycerin for 20 min at RT. Samples were blocked for 30 min at room temperature in blocking buffer (BB): 10% donkey serum, 2% BSA, 0.1% Triton X. The following primary antibodies were incubated in BB over night at 4° C.: anti-cardiac isoform of cTNT (clone 13-11; 1:100, Thermo Fischer), rabbit anti-human MLC2v (1:100), rabbit anti-human SHOX2 (1:200), (Abcam), rabbit anti-human TBX3 (1:100), goat anti-human Tbx18 (1:50), (Santa Cruz). Respective secondary antibodies were incubated for 30 min at RT: donkey anti-mouse IgG A647 (1:400), donkey anti-rabbit IgG A467 (1:400), (Life Technologies), goat anti-mouse IgG Cy3 (1:400), donkey anti-rabbit IgG Cy3 (1:800), donkey anti-goat IgG Cy3 (1:800), (Jackson ImmunoResearch). DAPI was used to counterstain cell nuclei and slides were mounted using Fluorescent Mounting Medium (Dako). The Olympus FluoView 1000 Laser Scanning Confocal Microscope and the FV10-ASW software were used for imaging.
For the quantification of DAPI and TBX18 positive cell nuclei the IMAGE J software plugin ICTN was used. For each condition three random taken pictures (FIG. 3F) of three independent experiments were analyzed.

[5] = tested on: SAN pacemaker marker, ventricular marker and cardiac ion channels; assay: Q-PCR analysis of marker gene expression; settings: BMP4 day 3-5, 2.5 ng/ml vs untreated control, day 4 to 12
Method: Total RNA was isolated using the RNAqueous-micro Kit (Ambion) followed by a DNase digestion step (Ambion). For RNA isolation from PFA-fixed cells the RecoverAll Kit (Ambion) was used. 500 ng to 1 μg of RNA was reverse transcribed into cDNA using random hexamers and Oligo(dT) primers with Superscript III Reverse Transcriptase (life technologies). QPCRs were performed on the EP RealPlex MasterCycler (Eppendorf) using the QuntiFast SYBR Green PCR Kit (Qiagen) according to the manufacturer's instructions. A 10-fold dilution series of human genomic DNA standards ranging from 25 ng/μl to […] was used to evaluate the efficiency of the PCR and calculate the copy number of each gene relative to the house keeping gene TBP as described previously^13. Human fetal heart tissue gestation stage 17 was purchased from Novogenix Laboratories. After dissecting ventricular, sinoatrial node and atrioventricular node tissue RNA was isolated using the Trizol method (Life Technologies) and treated with DNase (Ambion).

## bFGF: fibroblast growth factor FGF2
[1]; BMP+RA plus bFGF (20 ng/ml, day 4-6)
  NKX2-5-cTNT+ SANLCM population in day 20 cultures: 12±1%

## CC1=C(/C=C/C(C)=C/C=C/C(C)=C/C(=O)O)C(C)(C)CCC1 [RA, retinoic acid]
[1]; RA 500 nM added at later times (days 3 to 12)
  generation of total cardiomyocytes and SANLCM frequency: no effect

## [Cs] [Cesium]
[2]
  effect on pacemaker funny current traces: blocked

## CCN(CC)CCCCNc1ncc2cc(-c3cc(OC)cc(OC)c3)c(NC(=O)NC(C)(C)C)nc2n1 [PD 173074]
[1]; BMP+RA plus FGF inhibitor 240-960 nM
  NKX2-5+ cardiomyocytes in day 20 cultures: 51%
[1]; BMP+RA plus FGF inhibitor from day 4-6 (480 nM)
  NKX2-5-cTNT+ SANLCM in day 20 cultures: 48±3%
[1]; FGF inhibitor applied from day 5 onwards
  block in development of NKX2-5+ cardiomyocytes: no effect
[3]; 240 nM FGFi day 3-5, vs 43% at endogenous bFGF levels
  NKX2-5+ myocytes in day 20 cultures: 5%
[3]; BMP 2.5 ng/ml, RA 0.5 μM, 240 nM FGFi day 3-5
  NKX2-5-cTNT+ SANLCMs in day 20 cultures: up to 36%

## BMP4: Bone Morphogenetic Protein 4
[1]; BMP4 1.25-5 ng/ml day 3-5, mesoderm induced with 3B/2A
  proportion of SANLCMs: 35±1%
[1]; BMP4 1.25-5 ng/ml day 3-5, mesoderm induced with 5B/4A
  proportion of SANLCMs: 21±1%
[1]; BMP4 1.25-5 ng/ml day 3-5, mesoderm induced with 10B/6A
  proportion of SANLCMs: 15±2%
[1]; high levels of BMP4 (10-20 ng/ml) between day 3-5
  total cardiomyocytes: significant reduction
[4]
  number of TBX18+ cells at day 6: 38±2%
[5]
  TBX18 expression: significantly up-regulated
